In patent publication US5747253A, “Combinatorial oligomer immunoabsorbant screening assay for transcription factors and other biomolecule binding” (Isis Pharmaceuticals, Inc., priority 1995, dated 1998):

Assays:
gag-pol stem loop = test: Gel shift analysis of RNA oligonucleotide sets binding to HIV gag-pol stem loop (triple strand); details: 100 mM NaCl, 25 mM TRIS acetate pH5, 2 mM MgCl2, 1 mM spermidine
Excerpt: Binding to double stranded DNA or RNA is possible by formation of a three stranded complex with the incoming third strand binding in the major groove of the duplex RNA or DNA. The molecular nature of the interaction between the oligomer and target need not be known in order to practice the technique. Thus, it is possible that novel interactions between oligomers and DNA or RNA will be responsible for binding. One of the limitations in the design of triple strand interactions is the need to have a long stretch of homopurines as a target. The 3' (right) side of the gag-pol stem loop is homopurine except for a pair of cytosines near the bottom of the stem. To determine the best oligonucleotide to bind to the gag-pol stem loop, a group of RNA oligonucleotide sets was designed to bind to the purine-rich strand of the gag-pol stem-loop by Hoogstein base pairing and prepared in accordance with Examples 2 and 6. Binding to the gag-pol stemloop was measured by gel shift analysis as previously described in Example 8 with the following modifications: the radiolabeled gag-pol RNA was incubated with the oligonucleotide in 100 mM NaCl, 25 mM TRIS acetate pH5, 2 mM Mg Cl2, 1 mM spermidine. The gel was a 15% acrylamide with 50 mM NaCl 2 mM MgCl2 added to the running buffer.

c-rel = test: Capture assay for c-rel binding (streptavidin plates, Jurkat nuclear extract); details: library pools at 1 μM; native binding site at 100 nM
Description: Crude nuclear extracts were prepared as detailed by Franza, et al., Nature 1987, 330, 391, from Jurkat cells stimulated 4 hours with 1 μM PHA and 100 nM PMA to induce the expression of rel. The extract was then preabsorbed with 100 μl streptavidin agarose per ml for 10 minutes. This was followed with the addition of poly dI.dC as a non specific competitor at a concentration of 100 μg/ml of extract.
Phosphorothioate oligonucleotides were synthesized with the sequence […]-B (SEQ ID NO: 22) and […]-B (SEQ ID NO:23), where B=biotin, as described in Examples 3 and 9. The complementary oligonucleotides were then hybridized to create the double stranded NF-kB binding site, which was used as a positive control in the assay. A combinatorial phosphorothioate library was also synthesized with the general sequence TNNNXNNNT-B, where X=A, G, C, or U as described in Examples 3 and 6.
Each pool of the library was incubated in triplicate at a concentration of 1 μM with 100 μl of the extract for 20 minutes at room temperature. As a positive control, the native double stranded NF-kB binding site was incubated at 100 nM with the same amount of extract. Following the incubation each mixture was added to streptavidin coated microtiter plates (Elkay Lab Systems) and incubated 20 minutes. […] Color development was measured 2 hours later by reading absorbance at 405 nm on a Titertek Multiscan ELISA plate reader.

HIV-tat protein [1] = test: Capture assay for HIV-tat binding; details: phosphorothioate library pools at 100 nM
Description: As a positive control, the native double stranded NF-kB binding site was incubated at 100 nM with the same amount of extract. Following the incubation each mixture was added to streptavidin coated microtiter plates (Elkay Lab Systems) and incubated 20 minutes. Unbound molecules were washed away with PBS. 10 μl of PBS plus 5% fetal calf serum was added to each well for 20 minutes at room temperature followed by aspiration and addition of 100 μl of 1:500 tat antisera in PBS plus 1% FCS for 2 hours at room temperature. The wells were then washed with PBS and 100 μl of 1:5000 Protein A/G-alkaline phosphatase (Pierce) added in PBS for 2 hours at room temperature. […] Color development was measured 2 hours later by reading absorbance at 405 nm on a Titertek Multiscan ELISA plate reader.
This and all other steps were carried out at room temperature. […] Protein A/G-alkaline phosphatase was bound to the tat antibodies followed by the addition of the PNPP substrate and quantitation of A 405 as detailed in Example 33.
Each pool of the phosphorothioate combinatorial library described in Example 33 was incubated at a concentration of 100 nM with tat protein as described in Example 34. Following incubation of the protein with the library pools, the complexes were captured on streptavidin plates and binding quantitated as in Example 33. […]

HIV-tat protein [2] = test: Competition assay for HIV-tat binding against ΔTAR-B; details: RNA library pools at 1 μM, 10 μM and 100 μM; ΔTAR-B 100 nM
Excerpt: A truncated version (residues 16-45; ΔTAR) of the TAR hairpin previously shown to bind tat was synthesized using 2'-O-methyl oligonucleotides as described in Example 4 and was biotin conjugated on the 3' end (ΔTAR-B) as described in Example 9. A combinatorial library was synthesized using RNA oligonucleotides with the sequence CCA NNX NNNNGCCUGGGAGCNNNNUGG, where X=A (SEQ ID NO:24), G (SEQ ID NO:25), C (SEQ ID NO:26), or U (SEQ ID NO:27) as described in Example 2 and 6.
The pools of the library at 0, 1, 10, or 100 μM were incubated with 100 μl of purified recombinant tat transcription factor (Repligen) at a concentration of 20 pg/μl for 15'. This and all other steps were carried out at room temperature. The competitor, ΔTAR-B, was then added at a concentration of 100 nM. Following a 20' incubation, the mixture was bound to streptavidin-coated microtiter plates as in Example 33. After the non-bound molecules were washed away with PBS, 100 μl of 1:500 tat antisera was added to each well for 2 hours. Protein A/G-alkaline phosphatase was bound to the tat antibodies followed by the addition of the PNPP substrate and quantitation of A 405 as detailed in Example 33.
In the competition mode library pools which bind the transcription factor prevent binding to the natural target (in this case the competitor ΔTAR) also present in the assay. […]

Substance | Kd (gag-pol stem loop) | also measured
A2: RNA oligonucleotide (CCCUUCCCAUC; RNA, backbone not given here) [Set A2] | 10 µM | 
B2: RNA oligonucleotide (CCCUUCCCGUC; RNA, backbone not given here) [Set B2] | 10 µM | 
C2: RNA oligonucleotide (CCCUUCCCCUC; RNA, backbone not given here) [Set C2] | 1 µM | 
D2: RNA oligonucleotide (CCCUUCCCUUC; RNA, backbone not given here) [Set D2] | 10 µM | 
native NF-kB binding site: double stranded biotinylated phosphorothioate NF-kB binding site, SEQ ID NO: 22 and 23, positive control (chain 1 GGGGACTTTCCGCTGGGACTTTCTAG; chain 2 CTGGAAAGTCCCAGCGGAAGGTCCCC; all phosphorothioate, sugars by position and methylation of C not given here; biotinylated) |  | amount of c-rel bound, in words (c-rel): binds the greatest amount of rel
pool fixed at G: RNA library pool CCA NNX NNNNGCCUGGGAGCNNNNUGG, X=G (CCANNGNNNNGCCUGGGAGCNNNNUGG; RNA, backbone and the base at N not given here) |  | amount of tat bound, in words (HIV-tat protein [1]): clearly binds more tat than the others; inhibition of tat binding to ΔTAR, in words (HIV-tat protein [2]): least effect
